Measurements published in the supplement of paper PMC5908809.

Assays:
Assay in all cases: percent inhibition of viability; higher = more inhibition
[1] = tested on: normal primary NK cells, pool 1 (3 donors), resting (IL-2 0 ng/mL); details: 72 h
NKL (IL-2 2.5 ng/mL) = details: 72 h
[2] = tested on: normal primary NK cells, pool 1 (3 donors) (IL-2 2.5 ng/mL); details: 72 h
[3] = tested on: normal primary NK cells, pool 3 (3 donors) (IL-2 2.5 ng/mL); details: 72 h
IMC-1 (IL-2 20 ng/mL) = details: 72 h
SNK-6 (IL-2 2.5 ng/mL) = details: 72 h
KHYG-1 (IL-2 2.5 ng/mL) = details: 72 h
DERL-7 (IL-2 2.5 ng/mL) = details: 72 h
[4] = tested on: normal NK cells expanded with K562-aAPC; details: 72 h, IL-2 2.5 ng/mL
Method: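 Drug sensitivity and resistance testing on K562-aAPC-expanded normal NK cells: 5 concentrations (10-fold steps over a 10,000-fold range), 72 h at 37 °C, viability by CellTiter-Glo normalised to DMSO and benzethonium chloride controls; DSS from the fitted curve.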

Cc1nc(C(=O)NCC(=O)O)c(O)c2ccc(Oc3ccccc3)cc12 [FG-4592] (max concentration tested 10000 nM)
percent inhibition of viability [%]
Details	DERL-7 (IL-2 2.5 ng/mL)	IMC-1 (IL-2 20 ng/mL)	KHYG-1 (IL-2 2.5 ng/mL)	NKL (IL-2 2.5 ng/mL)	SNK-6 (IL-2 2.5 ng/mL)	[1]	[2]	[3]	[4]
1 nM	-0.63	-3.51	0.18	-14	3.91	–	0.46	-2.12	-0.43
10 nM	3.45	-1.09	-1.43	-13	-11.4	–	1.21	-3.88	-0.13
100 nM	4.49	1.25	2.3	-11.3	5.11	–	-8.95	-1.26	-0.05
1000 nM	0.12	-1.57	3.63	-0.19	2.73	-12.2	-4.43	5.12	6.19
10000 nM	6.99	22.9	19.2	22.6	28	-4.7	-4.71	5.24	12.6
